Reference: patent US8927500B2, “Peptidomimetic macrocycles” (Aileron Therapeutics, Inc., priority 2012, dated 2015)
Where a SMILES comes first, the peptide text is derived from it. Bridges are numbered along the chain shown (N, C = ends). [ ]: non-standard residue; d: D form. Trp(6-Cl) = N[C@@H](Cc1c[nH]c2cc(Cl)ccc12)C(=O)O; R8 = C=CCCCCCC[C@@](C)(N)C(=O)O; Cba = N[C@@H](CC1CCC1)C(=O)O; hLeu = CC(C)CC[C@H](N)C(=O)O; S5 = C=CCCC[C@](C)(N)C(=O)O; Nle = CCCC[C@H](N)C(=O)O

How the values were obtained:
[1] = molecular target: MDM2 (Homo sapiens, UniProt Q00987); experiment: Competitive fluorescence polarization assay for MDM2; assay type: binding; conditions: competitive FP assay, MDM2; for IC50: read-out: IC50 (MDM2); for Ki: read-out: Ki (MDM2)
Sequence of MDM2 (Q00987 1-125): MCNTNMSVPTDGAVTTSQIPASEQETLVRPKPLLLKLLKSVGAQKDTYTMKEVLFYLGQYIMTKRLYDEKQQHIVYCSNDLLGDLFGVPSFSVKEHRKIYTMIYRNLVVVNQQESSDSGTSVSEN

[2] = molecular target: T1, MDMX (Homo sapiens, UniProt O15151); experiment: Competitive fluorescence polarization assay for MDMX; assay type: binding; conditions: competitive FP assay; for IC50: read-out: IC50 (MDMX); for Ki: read-out: Ki (MDMX)
T1 sequence (O15151 1-125): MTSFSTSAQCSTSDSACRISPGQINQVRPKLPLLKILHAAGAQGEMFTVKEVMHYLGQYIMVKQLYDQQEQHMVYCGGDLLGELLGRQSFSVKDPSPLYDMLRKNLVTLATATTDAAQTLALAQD

Row | IC50 [1] | Ki [1] | IC50 [2] | Ki [2] | SMILES
1 | 10 to 100 nM | 10 to 100 nM | 100 to 1000 nM | 10 to 100 nM | CCCC[C@H](NC(=O)[C@H](C)NC(=O)[C@H](C)NC(=O)[C@]1(C)CCCC=CCCCCCC[C@@](C)(NC(=O)[C@H](Cc2ccccc2)NC(=O)[C@@H](NC(=O)[C@H](CC(C)C)NC(C)=O)[C@@H](C)O)C(=O)N[C@@H](CCC(=O)O)C(=O)N[C@@H](Cc2ccc(O)cc2)C(=O)N[C@@H](Cc2c[nH]c3ccccc23)C(=O)N[C@@H](C)C(=O)N[C@@H](CCC(N)=O)C(=O)N[C@@H](CCC(C)C)C(=O)N1)C(=O)N[C@@H](C)C(N)=O [compound 318] (Ac-LTF[R8]EYWAQ[hLeu][S5]AA[Nle]A-NH2; staple 4-11)
2 | 10 to 100 nM | 10 to 100 nM | 100 to 1000 nM | 100 to 1000 nM | CCCC[C@H](NC(=O)[C@H](C)NC(=O)[C@H](C)NC(=O)[C@]1(C)CCCC=CCCCCCC[C@@](C)(NC(=O)[C@H](Cc2ccccc2)NC(=O)[C@@H](NC(=O)[C@H](C)NC(=O)[C@H](C)NC(C)=O)[C@@H](C)O)C(=O)N[C@@H](C)C(=O)N[C@@H](Cc2ccc(O)cc2)C(=O)N[C@@H](Cc2c[nH]c3ccccc23)C(=O)N[C@@H](C)C(=O)N[C@@H](CCC(N)=O)C(=O)N[C@@H](CC(C)C)C(=O)N1)C(=O)N[C@@H](C)C(N)=O [compound 319] (Ac-AATF[R8]AYWAQL[S5]AA[Nle]A-NH2; staple 5-12)
3 | 10 to 100 nM | 10 to 100 nM | 100 to 1000 nM | 100 to 1000 nM | CCCC[C@H](NC(=O)[C@H](C)NC(=O)[C@H](C)NC(=O)[C@]1(C)CCCC=CCCCCCC[C@@](C)(NC(=O)[C@H](Cc2ccccc2)NC(=O)[C@@H](NC(=O)[C@H](CC(C)C)NC(C)=O)[C@@H](C)O)C(=O)N[C@@H](C)C(=O)N[C@@H](Cc2ccc(O)cc2)C(=O)N[C@@H](Cc2c[nH]c3ccccc23)C(=O)N[C@@H](C)C(=O)N[C@@H](CCC(N)=O)C(=O)N[C@@H](CC(C)C)C(=O)N1)C(=O)N[C@@H](C)C(=O)N[C@@H](C)C(N)=O [compound 320]
4 | 10 to 100 nM | < 10 nM | 100 to 1000 nM | 10 to 100 nM | CCCC[C@H](NC(=O)[C@H](C)NC(=O)[C@H](C)NC(=O)[C@]1(C)CCCC=CCCCCCC[C@@](C)(NC(=O)[C@H](Cc2ccccc2)NC(=O)[C@@H](NC(=O)[C@H](CC(C)C)NC(=O)[C@H](C)NC(C)=O)[C@@H](C)O)C(=O)N[C@@H](C)C(=O)N[C@@H](Cc2ccc(O)cc2)C(=O)N[C@@H](Cc2c[nH]c3ccccc23)C(=O)N[C@@H](C)C(=O)N[C@@H](CCC(N)=O)C(=O)N[C@@H](CC(C)C)C(=O)N1)C(=O)N[C@@H](C)C(=O)N[C@@H](C)C(N)=O [compound 321]
5 | 10 to 100 nM | 10 to 100 nM | 100 to 1000 nM | 100 to 1000 nM | CCCC[C@H](NC(=O)[C@H](C)NC(=O)[C@H](C)NC(=O)[C@]1(C)CCCC=CCCCCCC[C@@](C)(NC(=O)[C@H](Cc2ccccc2)NC(=O)[C@@H](NC(=O)[C@H](CC(C)C)NC(C)=O)[C@@H](C)O)C(=O)N[C@@H](C)C(=O)N[C@@H](Cc2ccc(O)cc2)C(=O)N[C@@H](Cc2c[nH]c3ccccc23)C(=O)N[C@@H](C)C(=O)N[C@@H](CCC(N)=O)C(=O)N[C@@H](CC2CCC2)C(=O)N1)C(=O)N[C@@H](C)C(=O)N[C@@H](C)C(N)=O [compound 322] (Ac-LTF[R8]AYWAQ[Cba][S5]AA[Nle]AA-NH2; staple 4-11)
6 | 10 to 100 nM | 10 to 100 nM | > 1000 nM | 100 to 1000 nM | CCCC[C@H](NC(=O)[C@H](C)NC(=O)[C@H](C)NC(=O)[C@]1(C)CCCC=CCCCCCC[C@@](C)(NC(=O)[C@H](Cc2ccccc2)NC(=O)[C@@H](NC(=O)[C@H](CC(C)C)NC(C)=O)[C@@H](C)O)C(=O)N[C@@H](C)C(=O)N[C@@H](Cc2ccc(O)cc2)C(=O)N[C@@H](Cc2c[nH]c3ccccc23)C(=O)N[C@@H](C)C(=O)N[C@@H](CCC(N)=O)C(=O)N[C@@H](CCC(C)C)C(=O)N1)C(=O)N[C@@H](C)C(=O)N[C@@H](C)C(N)=O [compound 323]
7 | 10 to 100 nM | < 10 nM | 10 to 100 nM | 10 to 100 nM | CC(=O)N[C@@H](C)C(=O)N[C@@H](CC(C)C)C(=O)N[C@H](C(=O)N[C@@H](Cc1ccccc1)C(=O)N[C@]1(C)CCCCCCC=CCCC[C@@](C)(C(=O)N[C@@H](CO)C(=O)N[C@@H](C)C(=O)N[C@@H](C)C(=O)N[C@@H](C)C(N)=O)NC(=O)[C@H](CC2CCC2)NC(=O)[C@H](CCC(N)=O)NC(=O)[C@H](C)NC(=O)[C@H](Cc2c[nH]c3ccccc23)NC(=O)[C@H](Cc2ccc(O)cc2)NC(=O)[C@H](CCC(=O)O)NC1=O)[C@@H](C)O [compound 329]
8 | < 10 nM | < 10 nM | < 10 nM | < 10 nM | CC(=O)N[C@@H](CCCNC(=N)N)C(=O)N[C@H](C(=O)N[C@@H](Cc1ccccc1)C(=O)N[C@]1(C)CCCCCCC=CCCC[C@@](C)(C(=O)N[C@@H](CO)C(=O)N[C@@H](C)C(=O)N[C@@H](C)C(N)=O)NC(=O)[C@H](CC2CCC2)NC(=O)[C@H](CCC(N)=O)NC(=O)[C@H](C)NC(=O)[C@H](Cc2c[nH]c3ccccc23)NC(=O)[C@H](Cc2ccc(O)cc2)NC(=O)[C@H](CCC(=O)O)NC1=O)[C@@H](C)O [compound 360] (Ac-RTF[R8]EYWAQ[Cba][S5]SAA-NH2; staple 4-11)
9 | 10 to 100 nM | < 10 nM | 10 to 100 nM | < 10 nM | CC(=O)N[C@@H](CC(C)C)C(=O)N[C@H](C(=O)N[C@@H](Cc1ccccc1)C(=O)N[C@]1(C)CCCCCCC=CCCC[C@@](C)(C(=O)N[C@@H](CO)C(=O)N[C@@H](C)C(=O)N[C@@H](C)C(N)=O)NC(=O)[C@H](CC2CCC2)NC(=O)[C@H](CCCNC(=N)N)NC(=O)[C@H](C)NC(=O)[C@H](Cc2c[nH]c3ccccc23)NC(=O)[C@H](Cc2ccc(O)cc2)NC(=O)[C@H](CCC(=O)O)NC1=O)[C@@H](C)O [compound 363] (Ac-LTF[R8]EYWAR[Cba][S5]SAA-NH2; staple 4-11)
10 | 10 to 100 nM | < 10 nM | 10 to 100 nM | < 10 nM | CC(=O)N[C@@H](CC(C)C)C(=O)N[C@H](C(=O)N[C@@H](Cc1ccccc1)C(=O)N[C@]1(C)CCCCCCC=CCCC[C@@](C)(C(=O)N[C@@H](CCCNC(=N)N)C(=O)N[C@@H](C)C(=O)N[C@@H](C)C(N)=O)NC(=O)[C@H](CC2CCC2)NC(=O)[C@H](CCC(N)=O)NC(=O)[C@H](C)NC(=O)[C@H](Cc2c[nH]c3ccccc23)NC(=O)[C@H](Cc2ccc(O)cc2)NC(=O)[C@H](CCC(=O)O)NC1=O)[C@@H](C)O [compound 364] (Ac-LTF[R8]EYWAQ[Cba][S5]RAA-NH2; staple 4-11)
11 | 10 to 100 nM | < 10 nM | 10 to 100 nM | < 10 nM | CC(=O)N[C@@H](CC(C)C)C(=O)N[C@H](C(=O)N[C@@H](Cc1ccccc1)C(=O)N[C@]1(C)CCCCCCC=CCCC[C@@](C)(C(=O)N[C@@H](CO)C(=O)N[C@@H](CCCNC(=N)N)C(=O)N[C@@H](C)C(N)=O)NC(=O)[C@H](CC2CCC2)NC(=O)[C@H](CCC(N)=O)NC(=O)[C@H](C)NC(=O)[C@H](Cc2c[nH]c3ccccc23)NC(=O)[C@H](Cc2ccc(O)cc2)NC(=O)[C@H](CCC(=O)O)NC1=O)[C@@H](C)O [compound 365] (Ac-LTF[R8]EYWAQ[Cba][S5]SRA-NH2; staple 4-11)
12 | 10 to 100 nM | < 10 nM | 10 to 100 nM | 10 to 100 nM | CC(=O)N[C@@H](CC(C)C)C(=O)N[C@H](C(=O)N[C@@H](Cc1ccccc1)C(=O)N[C@]1(C)CCCCCCC=CCCC[C@@](C)(C(=O)N[C@@H](CO)C(=O)N[C@@H](C)C(=O)N[C@@H](CCCNC(=N)N)C(N)=O)NC(=O)[C@H](CC2CCC2)NC(=O)[C@H](CCC(N)=O)NC(=O)[C@H](C)NC(=O)[C@H](Cc2c[nH]c3ccccc23)NC(=O)[C@H](Cc2ccc(O)cc2)NC(=O)[C@H](CCC(=O)O)NC1=O)[C@@H](C)O [compound 366] (Ac-LTF[R8]EYWAQ[Cba][S5]SAR-NH2; staple 4-11)
13 | 100 to 1000 nM | 10 to 100 nM | 100 to 1000 nM | 10 to 100 nM | CCCC[C@H](NC(=O)[C@H](C)NC(=O)[C@H](C)NC(=O)[C@]1(C)CCCC=CCCCCCC[C@@](C)(NC(=O)[C@H](Cc2ccccc2)NC(=O)[C@H](C)NC(=O)[C@H](CC(C)C)NC(C)=O)C(=O)N[C@@H](CCC(=O)O)C(=O)N[C@@H](Cc2ccc(O)cc2)C(=O)N[C@@H](Cc2c[nH]c3ccccc23)C(=O)N[C@@H](C)C(=O)N[C@@H](CCC(N)=O)C(=O)N[C@@H](CC(C)C)C(=O)N1)C(=O)N[C@@H](C)C(N)=O [compound 369] (Ac-LAF[R8]EYWAQL[S5]AA[Nle]A-NH2; staple 4-11)
14 | 10 to 100 nM | < 10 nM | 10 to 100 nM | 10 to 100 nM | CCCC[C@H](NC(=O)[C@H](C)NC(=O)[C@H](C)NC(=O)[C@]1(C)CCCC=CCCCCCC[C@@](C)(NC(=O)[C@H](Cc2ccccc2)NC(=O)[C@@H](NC(=O)[C@H](C)NC(C)=O)[C@@H](C)O)C(=O)N[C@@H](CCC(=O)O)C(=O)N[C@@H](Cc2ccc(O)cc2)C(=O)N[C@@H](Cc2c[nH]c3ccccc23)C(=O)N[C@@H](C)C(=O)N[C@@H](CCC(N)=O)C(=O)N[C@@H](CC(C)C)C(=O)N1)C(=O)N[C@@H](C)C(N)=O [compound 370] (Ac-ATF[R8]EYWAQL[S5]AA[Nle]A-NH2; staple 4-11)

Row | SMILES | IC50 [1] | Ki [1] | IC50 [2] | Ki [2]
15 | CC(=O)N[C@@H](Cc1ccccc1)C(=O)N[C@]1(C)CCCCCCC=CCCC[C@@](C)(C(=O)N[C@@H](C)C(=O)N[C@@H](C)C(=O)N[C@@H](C)C(=O)N[C@@H](C)C(=O)N[C@@H](C)C(=O)N[C@@H](C)C(=O)N[C@H](C)C(N)=O)NC(=O)[C@H](CC(C)C)NC(=O)[C@H](C)NC(=O)[C@H](CCC(=O)O)NC(=O)[C@H](Cc2c[nH]c3cc(Cl)ccc23)NC(=O)[C@H](Cc2ccc(O)cc2)NC(=O)[C@H](C)NC1=O [compound 339] (Ac-F[R8]AY[Trp(6-Cl)]EAL[S5]AAAAAA[dA]-NH2; staple 2-9) | < 10 nM | < 10 nM | 100 to 1000 nM | 10 to 100 nM
